Data on 2 molecules can be found in ChEMBL document CHEMBL1201862, “PubChem BioAssay data set” (2004).

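Cultured in 96-well plates, cells were exposed to test compound for 48 hours across five concentrations. GI50 is the concentration that inhibits growth by half.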 The source made the active and inactive calls. Cut-off read from the data, not from the text of the source: active = GI50 up to about 1.1 µM and inactive = higher. Bounds are passed on as bounds.

Common to all, as to experiment: NCI tumour cell line growth inhibition, 48 h
The subject of assay [1] is KM12.
The subject of assay [2] is HCT-116.
Assay [3] has as its system HOP-62.
For assay [4], the system named is EKVX.
Assay [5] concerns DU-145.
In assay [6] the test system is OVCAR-3.
Assay [7] deals with UO-31.
For assay [8], the system named is SW-620.
The subject of assay [9] is TK-10.
Assay [10] concerns HCT-15.
For assay [11], the system named is HCC 2998.
Assay [12] has as its system SK-MEL-5.
Assay [13] relates to CCRF-CEM.
The subject of assay [14] is HOP-92.
Assay [15] deals with UACC-257.
Assay [16] deals with K562.
Assay [17] concerns NCI-H522.
Assay [18] relates to IGROV-1.
Assay [19] has as its system RPMI-8226.
The subject of assay [20] is RXF 393.

With `COc1ccc(N2C(=O)CC(=O)N(NC(=O)C(C)Oc3ccccc3C)C2=S)cc1` (stereo not given), the GI50 in assay [1], in [2], in assay [3], in assay [4], in assay [5] and in assay [6] was > 100 µM (inactive) each time. In addition, the GI50 in [7] was > 100 µM (inactive); in assay [8] it was > 100 µM (inactive); in assay [9], > 100 µM (inactive); in assay [10] it was greater than 100 µM; in assay [11] it was > 100 µM (inactive); in assay [12], > 100 µM (inactive). For the same molecule, the GI50 in assay [13], in [14], in assay [15], in [16], in [17] and in assay [18] was > 100 µM (inactive) in each case. Also, the GI50 in assay [19] and in [20] was > 100 µM (inactive) throughout.

With `Cc1nn(C(=O)c2ccccc2O)c2c1C(c1ccc([N+](=O)[O-])cc1)SC(=N)N2` (stereo not given), the GI50 was 5.36 µM (inactive) in assay [1]; 2.48 µM (inactive) in assay [2]; 4.92 µM (inactive) in assay [3]; > 10 µM (inactive) in [4]; 3.64 µM (inactive) in [5]; 4.05 µM (inactive) in assay [6]. Moreover, the GI50 in [7] was 4.49 µM (inactive); in assay [8], 6.17 µM (inactive); in assay [9], > 4.5 µM (inactive); in assay [10] it was 5.14 µM; in [11], > 10 µM (inactive); in [12] it was > 6.43 µM (inactive). Besides, the GI50 is 3.32 µM (inactive) in [13]; 1.55 µM (inactive) in [14]; 3.21 µM (inactive) in assay [15]; 1.17 µM (inactive) in [16]; 5.6 µM (inactive) in assay [17]; 1.88 µM (inactive) in assay [18]. Further, the GI50 in [19] is > 7.03 µM (inactive); in [20], 2.54 µM (inactive).
